Measurements from US4864023A, “Pyrido(3,2,1-IJ)-1,3,4-benzoxadiazine derivatives” (priority 1988, dated 1989).
In brackets after ≈: the same amount, converted by molar mass. Read-outs that look alike come from different tables or passages of the source.

Experiments:
Test in all cases: in vitro antibacterial activity, standard agar dilution method
Format in all cases: cell-based
[1] = system: Bacillus subtilis PCI 219; conditions: PCI219, aerobic, read-out: minimum inhibitory concentration (MIC)
[2] = system: Staphylococcus aureus FDA 209P JC-1; conditions: FDA209P, read-out: minimum inhibitory concentration (MIC)
[3] = system: Staphylococcus aureus NR 2855
[4] = system: Staphylococcus aureus Smith; conditions: Staphylococcus aureus Smith; aerobic; agar dilution; read-out: minimum inhibitory concentration (MIC)
[5] = system: Staphylococcus epidermidis IFO 12993; conditions: IFO12993, aerobic, read-out: minimum inhibitory concentration (MIC)
[6] = system: Staphylococcus epidermidis NR 2942; conditions: NR2942, aerobic, read-out: minimum inhibitory concentration (MIC)
[7] = system: Enterococcus faecalis NR 2943; conditions: NR2943, aerobic, read-out: minimum inhibitory concentration (MIC)
[8] = system: Alcaligenes faecalis IFO 13111; conditions: IFO13111, aerobic, read-out: minimum inhibitory concentration (MIC)
[9] = system: Citrobacter freundii IFO 12681; conditions: IFO12681, aerobic, read-out: minimum inhibitory concentration (MIC)
[10] = system: Enterobacter aerogenes NR 2945; conditions: Klebsiella aerogenes, NR2945, aerobic, read-out: minimum inhibitory concentration (MIC)
[11] = system: Enterobacter cloacae NR 2946; conditions: NR2946, aerobic, read-out: minimum inhibitory concentration (MIC)
[12] = system: Escherichia coli NIHJ JC-2; conditions: NIHJJC2, aerobic, read-out: minimum inhibitory concentration (MIC)
Escherichia coli NR 2630 = conditions: NR2630; Escherichia coli NR 2630; aerobic; agar dilution; read-out: minimum inhibitory concentration (MIC)
[13] = system: Klebsiella pneumoniae FDA PCI 602; conditions: FDAPCI602, aerobic, read-out: minimum inhibitory concentration (MIC)
[14] = system: Bordetella bronchiseptica ATCC 4617; conditions: ATCC4617, aerobic, read-out: minimum inhibitory concentration (MIC)
[15] = system: Proteus rettgeri ATCC 14505; conditions: Providencia rettgeri, ATCC14505, aerobic, read-out: minimum inhibitory concentration (MIC)
[16] = system: Proteus vulgaris OX19 ATCC 6898; conditions: ATCC6898, aerobic, read-out: minimum inhibitory concentration (MIC)
[17] = system: Pseudomonas aeruginosa A3; conditions: aerobic, read-out: minimum inhibitory concentration (MIC)
[18] = system: Pseudomonas aeruginosa NR 2950; conditions: NR2950, aerobic, read-out: minimum inhibitory concentration (MIC)
[19] = system: Pseudomonas stutzeri IFO 12695; conditions: Stutzerimonas stutzeri, IFO12695, aerobic, read-out: minimum inhibitory concentration (MIC)
[20] = system: Serratia marcescens IFO 12648; conditions: IFO12648, aerobic, read-out: minimum inhibitory concentration (MIC)
[21] = system: Salmonella typhimurium IFO 12529; conditions: Salmonella enterica, aerobic, read-out: minimum inhibitory concentration (MIC)
[22] = Staphylococcus aureus FDA 209P JC-1, aerobic, agar dilution
[23] = NR2855, Staphylococcus aureus NR 2855, aerobic, agar dilution, read-out: minimum inhibitory concentration (MIC)

SMILES	MIC [1] [µg/mL]	MIC [2, 22] [µg/mL]	MIC [3, 23] [µg/mL]	MIC [4] [µg/mL]	MIC [5] [µg/mL]	MIC [6] [µg/mL]	MIC [7] [µg/mL]	MIC [8] [µg/mL]	MIC [9] [µg/mL]	MIC [10] [µg/mL]	MIC [11] [µg/mL]	MIC [12] [µg/mL]	MIC [13] [µg/mL]	MIC [14] [µg/mL]	MIC [15] [µg/mL]	MIC [16] [µg/mL]	MIC [17] [µg/mL]	MIC [18] [µg/mL]	MIC [20] [µg/mL]	MIC [21] [µg/mL]	other results
CN1CCN(c2c(F)cc3c(=O)c(C(=O)O)cn4c3c2OCN4CCF)CC1 [Example 69, 9-fluoro-3-(2-fluoroethyl)-10-(4-methyl-1-piperazinyl)-7-oxo-2,3-dihydro-7H-pyrido[3,2,1-ij]-1,3,4-benzoxadiazine-6-carboxylic acid]	0.2 (≈ 0.507 µM)	1.56 (≈ 3.96 µM)	1.56 (≈ 3.96 µM)	0.78 (≈ 1.98 µM)	1.56 (≈ 3.96 µM)	1.56 (≈ 3.96 µM)	12.5 (≈ 31.7 µM)	3.13 (≈ 7.94 µM)	0.1 (≈ 0.254 µM)	0.1 (≈ 0.254 µM)	0.2 (≈ 0.507 µM)	0.2 (≈ 0.507 µM)	0.39 (≈ 0.989 µM)	0.78 (≈ 1.98 µM)	0.78 (≈ 1.98 µM)	0.05 (≈ 0.127 µM)	0.78 (≈ 1.98 µM)	6.25 (≈ 15.8 µM)	0.2 (≈ 0.507 µM)	0.1 (≈ 0.254 µM)	MIC (Escherichia coli NR 2630): 0.1 µg/mL (≈ 0.254 µM); MIC [19]: 0.2 µg/mL (≈ 0.507 µM)
CN1COc2c(N3CCC(CN)C3)c(F)cc3c(=O)c(C(=O)O)cn1c23 (centres unmarked) [Example 54, 10-[3-(aminomethyl)-1-pyrrolidinyl]-9-fluoro-3-methyl-7-oxo-2,3-dihydro-7H-pyrido[3,2,1-ij]-1,3,4-benzoxadiazine-6-carboxylic acid]	0.025 (≈ 0.069 µM)	0.013 (≈ 0.0359 µM)	0.2 (≈ 0.552 µM)	0.025 (≈ 0.069 µM)	0.1 (≈ 0.276 µM)	0.1 (≈ 0.276 µM)	1.56 (≈ 4.31 µM)	6.25 (≈ 17.2 µM)	0.1 (≈ 0.276 µM)	0.025 (≈ 0.069 µM)	0.1 (≈ 0.276 µM)	0.1 (≈ 0.276 µM)	0.78 (≈ 2.15 µM)	3.13 (≈ 8.64 µM)	0.78 (≈ 2.15 µM)	0.013 (≈ 0.0359 µM)	0.2 (≈ 0.552 µM)	1.56 (≈ 4.31 µM)	0.39 (≈ 1.08 µM)	0.025 (≈ 0.069 µM)	MIC (Escherichia coli NR 2630): 0.025 µg/mL (≈ 0.069 µM); MIC [19]: 0.013 µg/mL (≈ 0.0359 µM)
CN1COc2c(N3CCNC(c4ccccc4)C3)c(F)cc3c(=O)c(C(=O)O)cn1c23 (centres unmarked) [Example 8]	0.025 (≈ 0.0589 µM)	0.39 (≈ 0.919 µM)	0.39 (≈ 0.919 µM)	0.2 (≈ 0.471 µM)	0.39 (≈ 0.919 µM)	0.39 (≈ 0.919 µM)	6.25 (≈ 14.7 µM)	0.78 (≈ 1.84 µM)	0.025 (≈ 0.0589 µM)	0.025 (≈ 0.0589 µM)	0.05 (≈ 0.118 µM)	0.05 (≈ 0.118 µM)	0.2 (≈ 0.471 µM)	0.39 (≈ 0.919 µM)	0.39 (≈ 0.919 µM)	0.025 (≈ 0.0589 µM)	0.39 (≈ 0.919 µM)	3.13 (≈ 7.37 µM)	0.1 (≈ 0.236 µM)	0.025 (≈ 0.0589 µM)	MIC (Escherichia coli NR 2630): 0.013 µg/mL (≈ 0.0306 µM); MIC [19]: 0.025 µg/mL (≈ 0.0589 µM)
CN1COc2c(N3CCOCC3)c(F)cc3c(=O)c(C(=O)O)cn1c23 [Example 9, 9-Fluoro-3-methyl-10-morpholino-7-oxo-2,3-dihydro-7H-pyrido[3,2,1-ij]-1,3,4-benzoxadiazine-6-carboxylic acid]	≤ 0.0008	0.2 (≈ 0.573 µM)	0.0065 (≈ 0.0186 µM)	0.0033 (≈ 0.00945 µM)	0.2 (≈ 0.573 µM)	0.0065 (≈ 0.0186 µM)	12.5 (≈ 35.8 µM)	6.25 (≈ 17.9 µM)	0.39 (≈ 1.12 µM)	0.0065 (≈ 0.0186 µM)	0.013 (≈ 0.0372 µM)	0.1 (≈ 0.286 µM)	3.13 (≈ 8.96 µM)	1.56 (≈ 4.47 µM)	1.56 (≈ 4.47 µM)	≤ 0.0008	6.25 (≈ 17.9 µM)	12.5 (≈ 35.8 µM)	0.78 (≈ 2.23 µM)	0.0033 (≈ 0.00945 µM)	MIC (Escherichia coli NR 2630): ≤ 0.0008 µg/mL; MIC [19]: ≤ 0.0008 µg/mL
CCN(C)CC1CCN(c2c(F)cc3c(=O)c(C(=O)O)cn4c3c2OCN4C)C1 (centres unmarked) [Example 48, 10-[3-[(ethylmethylamino)methyl]-1-pyrrolidinyl]-9-fluoro-3-methyl-7-oxo-2,3-dihydro-7H-pyrido-[3,2,1-ij]-1,3,4-benzoxadiazine-6-carboxylic acid]	0.05 (≈ 0.124 µM)			0.2 (≈ 0.495 µM)	0.39 (≈ 0.964 µM)	0.78 (≈ 1.93 µM)	6.25 (≈ 15.5 µM)	3.13 (≈ 7.74 µM)	0.39 (≈ 0.964 µM)	0.39 (≈ 0.964 µM)	0.39 (≈ 0.964 µM)	0.39 (≈ 0.964 µM)	1.56 (≈ 3.86 µM)	6.25 (≈ 15.5 µM)	3.13 (≈ 7.74 µM)	0.39 (≈ 0.964 µM)	3.13 (≈ 7.74 µM)	50 (≈ 124 µM)	1.56 (≈ 3.86 µM)	0.39 (≈ 0.964 µM)	MIC ([2]; Staphylococcus aureus): 0.39 µg/mL (≈ 0.964 µM); MIC ([3]; Staphylococcus aureus, NR2855, read-out: minimum inhibitory concentration (MIC)): 0.39 µg/mL (≈ 0.964 µM); MIC (Escherichia coli NR 2630): 0.1 µg/mL (≈ 0.247 µM); MIC [19]: 1.56 µg/mL (≈ 3.86 µM)
CN1CCN(c2c(F)cc3c(=O)c(C(=O)O)cn4c3c2OC(CO)N4C)CC1 (centres unmarked) [Example 27]	0.39 (≈ 0.994 µM)	1.56 (≈ 3.98 µM)	12.5 (≈ 31.9 µM)	1.56 (≈ 3.98 µM)	6.25 (≈ 15.9 µM)	6.25 (≈ 15.9 µM)	50 (≈ 127 µM)	50 (≈ 127 µM)	0.2 (≈ 0.51 µM)	0.2 (≈ 0.51 µM)	0.78 (≈ 1.99 µM)	0.78 (≈ 1.99 µM)	3.13 (≈ 7.98 µM)	25 (≈ 63.7 µM)	12.5 (≈ 31.9 µM)	0.2 (≈ 0.51 µM)	3.13 (≈ 7.98 µM)	25 (≈ 63.7 µM)	3.13 (≈ 7.98 µM)	0.39 (≈ 0.994 µM)	MIC [19]: 0.2 µg/mL (≈ 0.51 µM)
CN1COc2c(N3CCN(CCO)CC3)c(F)cc3c(=O)c(C(=O)O)cn1c23 [Example 15]	0.05 (≈ 0.127 µM)	0.78 (≈ 1.99 µM)	0.78 (≈ 1.99 µM)	0.39 (≈ 0.994 µM)	0.78 (≈ 1.99 µM)	0.78 (≈ 1.99 µM)	6.25 (≈ 15.9 µM)	3.13 (≈ 7.98 µM)	0.05 (≈ 0.127 µM)	0.05 (≈ 0.127 µM)	0.1 (≈ 0.255 µM)	0.1 (≈ 0.255 µM)	0.39 (≈ 0.994 µM)	0.78 (≈ 1.99 µM)	0.78 (≈ 1.99 µM)	0.025 (≈ 0.0637 µM)	0.78 (≈ 1.99 µM)	3.13 (≈ 7.98 µM)	0.39 (≈ 0.994 µM)	0.05 (≈ 0.127 µM)	MIC [19]: 0.05 µg/mL (≈ 0.127 µM)
CN1COc2c(N3CCC(O)CC3)c(F)cc3c(=O)c(C(=O)O)cn1c23 [Example 13, 9-fluoro-10-(4-hydroxy-1-piperidyl)-3-methyl-7-oxo-2,3-dihydro-7H-pyrido[3,2,1-ij]-1,3,4-benzoxadiazine-6-carboxylic acid]	≤ 0.0008	0.1 (≈ 0.275 µM)	0.05 (≈ 0.138 µM)	0.025 (≈ 0.0688 µM)	0.1 (≈ 0.275 µM)	0.05 (≈ 0.138 µM)	3.13 (≈ 8.61 µM)	3.13 (≈ 8.61 µM)	0.39 (≈ 1.07 µM)	0.2 (≈ 0.55 µM)	0.39 (≈ 1.07 µM)	0.39 (≈ 1.07 µM)	0.78 (≈ 2.15 µM)	0.78 (≈ 2.15 µM)	0.78 (≈ 2.15 µM)	0.05 (≈ 0.138 µM)	1.56 (≈ 4.29 µM)	6.25 (≈ 17.2 µM)	0.39 (≈ 1.07 µM)	0.1 (≈ 0.275 µM)	MIC [19]: 0.1 µg/mL (≈ 0.275 µM)
CN1COc2c(N3CCNC(=O)C3)c(F)cc3c(=O)c(C(=O)O)cn1c23 [Example 24, 9-fluoro-3-methyl-7-oxo-10-(3-oxo-1-piperazinyl)-2,3-dihydro-7H-pyrido[3,2,1-ij]-1,3,4-benzoxadiazine-6-carboxylic acid]	0.39 (≈ 1.08 µM)	1.56 (≈ 4.31 µM)	6.25 (≈ 17.3 µM)	1.56 (≈ 4.31 µM)	3.13 (≈ 8.64 µM)	3.13 (≈ 8.64 µM)	25 (≈ 69 µM)	25 (≈ 69 µM)	1.56 (≈ 4.31 µM)	0.78 (≈ 2.15 µM)	3.13 (≈ 8.64 µM)	1.56 (≈ 4.31 µM)	6.25 (≈ 17.3 µM)	50 (≈ 138 µM)	12.5 (≈ 34.5 µM)	0.39 (≈ 1.08 µM)	3.13 (≈ 8.64 µM)	25 (≈ 69 µM)	6.25 (≈ 17.3 µM)	0.78 (≈ 2.15 µM)	MIC (Escherichia coli NR 2630): 0.78 µg/mL (≈ 2.15 µM)
